From ChEMBL document CHEMBL3045030, “Insect antifeedants from tropical plants II: structure of zumsin” (2002)

Experiments:
Format in all cases: functional
Spodoptera frugiperda [1] = assay: Antifeedant activity against second-instar larvae of Spodoptera frugiperda (fall armyworm) in cotton glandless leaves assessed as 50% protection of host plant substrate after 48 hr
Spodoptera frugiperda [2] = assay: Antifeedant activity against second-instar larvae of Spodoptera frugiperda (fall armyworm) in cotton glandless leaves assessed as 95% protection of host plant substrate after 48 hr
Pectinophora gossypiella [3] = assay: Antifeedant activity against second-instar larvae of Pectinophora gossypiella (pink bollworm) in cotton glandless leaves assessed as 95% protection of host plant substrate after 48 hr
Pectinophora gossypiella [4] = assay: Antifeedant activity against second-instar larvae of Pectinophora gossypiella (pink bollworm) in cotton glandless leaves assessed as 50% protection of host plant substrate after 48 hr

Q: What does the source list for `CC(=O)O[C@@H]1[C@@H]2[C@@]34CC(=O)C[C@@H]3OC(C)(C)[C@@H]4CC(=O)[C@@]2(C)[C@@]23O[C@@H]2C[C@H](c2ccoc2)[C@]3(C)[C@H]1OC(C)=O` [ZUMSIN]?
A: PC50 (Spodoptera frugiperda [1]): 2 microg/cm2; PC95 (Spodoptera frugiperda [2]): 16 microg/cm2; PC95 (Pectinophora gossypiella [3]): 8 microg/cm2; PC50 (Pectinophora gossypiella [4]): 1 microg/cm2
